{"source": "paper PMC11033495", "about": "(Pharmacology Research & Perspectives, 2024)", "key": {"CYP3A4 [1]": {"system": "CYP3A4", "type": "in vivo", "conditions": "oral TRZ 1 mg/kg; hCYP3A mice fed HCD versus ND"}, "[2]": {"type": "in vivo, hCYP3A mice", "conditions": "mean ± SD, n = 4"}, "CYP3A4 [3]": {"system": "CYP3A4", "assay": "Inhibition of TRZ hydroxylation by KCZ in pooled liver microsomes", "type": "biochemical, hCYP3A mice", "conditions": "0.01, 0.1 and 1 μM KCZ; pooled liver microsomes of ND and HCD mice"}, "CYP3A4 [4]": {"system": "CYP3A4", "assay": "In vivo DDI study: KCZ pretreatment before oral TRZ in mice fed ND or HCD", "design": "species or system hCYP3A mice", "conditions": "for Percentage of decline in AUCRα-OH: 40 mg/kg KCZ oral 15 min before oral TRZ 1 mg/kg, versus vehicle"}, "CYP3A4 [5]": {"system": "CYP3A4", "assay": "Plasma 4β-OH cholesterol as biomarker of CYP3A4 activity in mice fed ND or HCD", "type": "in vivo", "conditions": "hCYP3A mice"}, "[6]": {"conditions": "hCYP3A mice fed CA-diet (CE-2 + 0.5% CA) for 1 week"}, "[7]": {"conditions": "hCYP3A mice fed ND (CE-2) for 1 week"}, "[8]": {"conditions": "both ND and HCD mice, 40 mg/kg KCZ oral, TRZ 1 mg/kg oral"}}, "note": "Like-named read-outs stand apart in the source and are kept apart here."}
{"compound": "Cc1nnc2n1-c1ccc(Cl)cc1C(c1ccccc1Cl)=NC2", "note": "[TRZ, triazolam, reference compound]", "values": [{"measurement": "Plasma concentrations and AUC values in HCD mice compared with ND mice", "setting": "CYP3A4 [1]", "result": "lower"}]}
{"compound": "Cc1nnc2n1-c1ccc(Cl)cc1C(c1ccccc1Cl)=NC2O", "note": "(stereo not drawn) [4‐OH TRZ, 4‐hydroxy triazolam]", "values": [{"measurement": "Plasma concentrations and AUC values in HCD mice compared with ND mice", "setting": "CYP3A4 [1]", "result": "lower"}]}
{"compound": "OCc1nnc2n1-c1ccc(Cl)cc1C(c1ccccc1Cl)=NC2", "note": "[α‐OH TRZ, α‐hydroxy triazolam]", "values": [{"measurement": "Plasma concentrations and AUC values in HCD mice compared with ND mice", "setting": "CYP3A4 [1]", "result": "lower"}]}
{"compound": "CC(C)CCC[C@@H](C)[C@H]1CC[C@H]2[C@@H]3CC=C4C[C@@H](O)CC[C@]4(C)[C@H]3CC[C@]12C", "note": "[Cholesterol, cholesterol]", "values": [{"measurement": "Plasma concentration", "setting": "[2]; [6]", "result": "2250 ± 336", "unit": "µg/mL"}, {"measurement": "Plasma concentration", "setting": "[2]; [7]", "result": "1361 ± 152", "unit": "µg/mL"}]}
{"compound": "CC(=O)N1CCN(c2ccc(OCC3COC(Cn4ccnc4)(c4ccc(Cl)cc4Cl)O3)cc2)CC1", "note": "(stereo not drawn) [KCZ, ketoconazole]", "values": [{"measurement": "Effect on microsomal activity of TRZ hydroxylation in liver", "setting": "CYP3A4 [3]", "result": "inhibited"}, {"measurement": "Percentage of decline in AUCRα-OH", "setting": "CYP3A4 [4]; HCD mice", "result": 46, "unit": "%"}, {"measurement": "Percentage of decline in AUCRα-OH", "setting": "CYP3A4 [4]; ND mice", "result": 49, "unit": "%"}, {"measurement": "Effect of pretreatment on plasma concentrations of TRZ", "setting": "CYP3A4 [4]; [8]", "result": "tended to increase"}, {"measurement": "Effect of pretreatment on plasma concentrations of α-OH TRZ", "setting": "CYP3A4 [4]; [8]", "result": "decrease"}]}
{"compound": "CC(C)CCC[C@@H](C)[C@H]1CC[C@H]2[C@@H]3CC=C4[C@@H](O)[C@@H](O)CC[C@]4(C)[C@H]3CC[C@]12C", "note": "[4β‐OH cholesterol, 4β‐Hydroxy (4β‐OH) cholesterol]", "values": [{"measurement": "Plasma concentration ratio (4β-OH cholesterol/cholesterol), HCD versus ND", "setting": "CYP3A4 [5]", "result": "not significantly different"}, {"measurement": "Plasma level in mice fed HCD compared with mice fed ND", "setting": "CYP3A4 [5]; HCD versus ND", "result": "significantly higher"}, {"measurement": "Increase of plasma level by HCD", "setting": "CYP3A4 [5]; HCD versus ND, Figure S4A", "result": "about twofold"}]}
{"compound": "C[C@H](CCC(=O)O)[C@H]1CC[C@H]2[C@@H]3[C@H](O)C[C@@H]4C[C@H](O)CC[C@]4(C)[C@H]3C[C@H](O)[C@]12C", "note": "[CA, cholic acid]", "values": [{"measurement": "Plasma concentration", "setting": "[2]; [6]", "result": "1.35 ± 1.869", "unit": "µg/mL"}, {"measurement": "Plasma concentration", "setting": "[2]; [7]", "result": "0.312 ± 0.243", "unit": "µg/mL"}]}
